Experimental findings from ChEMBL document CHEMBL1201862, “PubChem BioAssay data set” (2004) are described below.

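Step 1: Grow cells in 96-well plates. Step 2: Expose to compound for 48 hours at 5 concentrations. Step 3: Interpolate endpoints linearly; if unreached, use highest concentration. GI50 is the concentration that inhibits growth by half.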 Active and inactive are the calls of the source. No stated cut-off is given here; in the data, active = GI50 up to about 1.1 µM and inactive = higher.

Test systems include M14; SK-MEL-2; UACC-257; MDA-MB-231; SR; A498; ACHN; CCRF-CEM; RXF 393; MDA-MB-435; HL-60; MOLT-4; SNB-75; BT-549; PC-3; OVCAR-8; NCI/ADR-RES; SNB-19; NCI-H460.
Common to all, as to test: NCI anticancer screen, dose series, 48 h

Regarding `Oc1ccc(C[C@@H]2CN[C@H](Cc3ccc(O)c(Br)c3)CN2)cc1`, the GI50 in the assay with M14, in the assay on SK-MEL-2, in the assay with UACC-257, in the assay with MDA-MB-231, in the assay on SR and with A498 was > 100 µM (inactive) each time. Also, the GI50 in the assay with ACHN was > 100 µM (inactive); in the assay on CCRF-CEM it was > 100 µM (inactive); in the assay with RXF 393, 84.3 µM (inactive); in the assay with MDA-MB-435, > 100 µM (inactive); in the assay with HL-60, > 100 µM (inactive); in the assay on MOLT-4, > 100 µM (inactive). Besides, the GI50 in the assay with SNB-75, in the assay with BT-549, in the assay with PC-3, in the assay on OVCAR-8 and with NCI/ADR-RES was > 100 µM (inactive) throughout.
As for `CC(N1CCOCC1)C(O)(c1ccccc1)c1ccccn1` (stereo not drawn), the GI50 in the assay on M14, in the assay on SNB-19, in the assay with SK-MEL-2, with UACC-257, in the assay on MDA-MB-231 and with NCI-H460 was > 100 µM (inactive) throughout. Also, the GI50 with SR was > 100 µM (inactive); in the assay on A498 it was 38.8 µM (inactive); in the assay on ACHN, 52.8 µM (inactive); in the assay with RXF 393, > 100 µM (inactive); in the assay on MDA-MB-435, > 100 µM (inactive); with HL-60, 44.9 µM (inactive). The GI50 with SNB-75, with BT-549, in the assay with PC-3, with OVCAR-8 and in the assay with NCI/ADR-RES was > 100 µM (inactive) throughout.
In the case of `CC(C)(C)/C(O)=C\c1nc2cc(C(F)(F)F)ccc2[nH]c1=O`, the GI50 in the assay with M14 was > 100 µM (inactive); in the assay on SNB-19 it was > 100 µM (inactive); in the assay on SK-MEL-2, > 100 µM (inactive); with UACC-257 it was > 100 µM (inactive); in the assay with MDA-MB-231 it was > 100 µM (inactive); in the assay on SR, > 10 µM (inactive). Also, the GI50 in the assay with A498 is > 100 µM (inactive); with ACHN, > 100 µM (inactive); in the assay on CCRF-CEM, 13.3 µM (inactive); with RXF 393, > 100 µM (inactive); with MDA-MB-435, > 100 µM (inactive); in the assay with HL-60, 0.53 µM (active). The GI50 in the assay with MOLT-4 was > 10 µM (inactive); in the assay on SNB-75 it was > 100 µM (inactive); with BT-549 it was > 100 µM (inactive); with PC-3 it was > 100 µM (inactive); with OVCAR-8, > 100 µM (inactive); in the assay on NCI/ADR-RES it was > 100 µM (inactive).
With `CCOC(=O)/C(=C\c1ccc(N(C)C)cc1)S(=O)(=O)C(F)(F)C(F)(F)C(F)(F)C(F)(F)F`, the GI50 in the assay with M14, in the assay with SNB-19, with SK-MEL-2, in the assay on UACC-257, with MDA-MB-231 and in the assay on NCI-H460 was > 100 µM (inactive) in each case. Also, the GI50 in the assay with SR, with A498, in the assay with ACHN, with CCRF-CEM, in the assay with MDA-MB-435 and with HL-60 was > 100 µM (inactive) each time. For the same compound, the GI50 is > 100 µM (inactive) with MOLT-4; > 100 µM (inactive) in the assay with SNB-75; 52.6 µM (inactive) in the assay with BT-549; > 100 µM (inactive) in the assay on PC-3; > 100 µM (inactive) in the assay on OVCAR-8; > 100 µM (inactive) in the assay on NCI/ADR-RES.
For the compound `COC1=C(OC)C(=O)C(C/C=C/c2c(Cl)nc3sccn23)=C(C)C1=O`, the GI50 is 16.2 µM (inactive) with M14; 14.1 µM (inactive) in the assay with SNB-19; 16.4 µM (inactive) in the assay on SK-MEL-2; 0.536 µM (active) in the assay on UACC-257; 7.67 µM (inactive) in the assay on MDA-MB-231; 17.9 µM (inactive) in the assay on NCI-H460. Besides, the GI50 is 15 µM (inactive) in the assay on SR; 22.2 µM (inactive) in the assay with A498; 15.5 µM (inactive) in the assay on ACHN; 1.85 µM (inactive) in the assay with CCRF-CEM; 18.4 µM (inactive) in the assay on RXF 393; 9.16 µM (inactive) with MDA-MB-435. The GI50 is 1.69 µM (inactive) in the assay with MOLT-4; 15 µM (inactive) in the assay with BT-549; 11.8 µM (inactive) in the assay on PC-3; 10.4 µM (inactive) with OVCAR-8; 5.58 µM (inactive) in the assay on NCI/ADR-RES.
Consider `CSc1nc(NC(C)C)c2c(n1)Sc1nc3ccccc3n1N=C2`, for which the GI50 was 40.5 µM (inactive) with M14; 7.57 µM (inactive) in the assay on SNB-19; 17.9 µM (inactive) in the assay with SK-MEL-2; 29.1 µM (inactive) in the assay with UACC-257; 11.1 µM (inactive) in the assay with MDA-MB-231; 6.34 µM (inactive) in the assay with NCI-H460. For the same compound, the GI50 is 13.2 µM (inactive) in the assay on SR; 3.09 µM (inactive) with A498; 5.83 µM (inactive) with ACHN; 6.58 µM (inactive) in the assay with CCRF-CEM; 17.4 µM (inactive) in the assay with MDA-MB-435; > 100 µM (inactive) with HL-60. Moreover, the GI50 in the assay with MOLT-4 is 9.84 µM (inactive); in the assay on BT-549, 18.7 µM (inactive); in the assay with PC-3 it was 19.5 µM (inactive); in the assay with OVCAR-8 it was 4.92 µM (inactive); in the assay on NCI/ADR-RES it was 6.92 µM (inactive).
As to `CC(=O)/C(=C\n1c(=S)[nH]c2ccc([N+](=O)[O-])cc21)C(=O)Nc1ccccc1C`, the GI50 in the assay on M14 was > 100 µM (inactive); in the assay with SK-MEL-2 it was > 100 µM (inactive); in the assay with UACC-257 it was > 100 µM (inactive); with MDA-MB-231, > 100 µM (inactive); with NCI-H460, > 100 µM (inactive); with SR, 88.5 µM (inactive). The GI50 in the assay on A498 is 96.8 µM (inactive); in the assay on ACHN, > 100 µM (inactive); in the assay on CCRF-CEM, > 100 µM (inactive); with RXF 393, > 100 µM (inactive); with MDA-MB-435, > 100 µM (inactive); in the assay with HL-60, > 100 µM (inactive). In addition, the GI50 was > 100 µM (inactive) with MOLT-4; 33.3 µM (inactive) in the assay on BT-549; > 100 µM (inactive) in the assay with PC-3; > 100 µM (inactive) in the assay on OVCAR-8; > 100 µM (inactive) with NCI/ADR-RES.
Take `CC(CN(C)C)C(C#N)(c1ccccc1)c1ccccc1` (stereo not drawn): the GI50 with M14, in the assay with SNB-19, in the assay with SK-MEL-2, with UACC-257, with MDA-MB-231 and with NCI-H460 was > 100 µM (inactive) throughout. Moreover, the GI50 was > 100 µM (inactive) in the assay with A498; > 100 µM (inactive) in the assay on ACHN; 49.1 µM (inactive) in the assay on CCRF-CEM; > 100 µM (inactive) in the assay with RXF 393; > 100 µM (inactive) with MDA-MB-435; > 100 µM (inactive) in the assay with HL-60. For the same compound, the GI50 in the assay on MOLT-4 is > 100 µM (inactive); with SNB-75 it was > 100 µM (inactive); with BT-549, > 100 µM (inactive); in the assay with PC-3, 47.6 µM (inactive); in the assay with OVCAR-8, > 100 µM (inactive); with NCI/ADR-RES, > 100 µM (inactive).
As for `CNC(=O)N(CCC#N)CCCN(C(=O)NC)c1ccccc1`, the GI50 in the assay with M14, with SNB-19, with SK-MEL-2, in the assay with UACC-257, in the assay on MDA-MB-231 and in the assay on NCI-H460 was > 100 µM (inactive) throughout. The GI50 with SR, in the assay on ACHN, with CCRF-CEM, with RXF 393, in the assay with MDA-MB-435 and in the assay with HL-60 was > 100 µM (inactive) in each case. For the same compound, the GI50 was > 100 µM (inactive) in the assay on MOLT-4; 72.6 µM (inactive) in the assay on SNB-75; > 100 µM (inactive) in the assay with BT-549; > 100 µM (inactive) with PC-3; > 100 µM (inactive) in the assay on OVCAR-8; > 100 µM (inactive) with NCI/ADR-RES.
In the case of `O=C(NC(=S)Nc1ccc2c(c1)Sc1ccccc1O2)c1ccccc1`, the GI50 in the assay on M14 is 43.2 µM (inactive); in the assay with SNB-19, 34 µM (inactive); with SK-MEL-2, 14.1 µM (inactive); in the assay on UACC-257, 33.2 µM (inactive); with MDA-MB-231, 21.6 µM (inactive); with NCI-H460, 48 µM (inactive). In addition, the GI50 with SR is 3.67 µM (inactive); with ACHN, 31.3 µM (inactive); with CCRF-CEM, 23 µM (inactive); with RXF 393 it was 20.4 µM (inactive); in the assay with MDA-MB-435, 3.55 µM (inactive); in the assay with HL-60, 13.5 µM (inactive). Further, the GI50 in the assay on MOLT-4 is 27.8 µM (inactive); with SNB-75, 15.7 µM (inactive); with BT-549, 29.6 µM (inactive); with PC-3 it was 11.2 µM (inactive); in the assay on OVCAR-8, 34.4 µM (inactive); in the assay on NCI/ADR-RES it was 39.9 µM (inactive).
As for `CCOP(=O)(C[S+](C)[O-])O[C@@H]1C[C@H](C)CC[C@H]1C(C)C` (stereo partly drawn), the GI50 was 8.3 µM (inactive) in the assay with M14; 12.2 µM (inactive) with SNB-19; 4.47 µM (inactive) with SK-MEL-2; 6.4 µM (inactive) in the assay with UACC-257; 3.03 µM (inactive) with MDA-MB-231; 4.5 µM (inactive) with NCI-H460. Besides, the GI50 with SR is 3.07 µM (inactive); with ACHN, 4.43 µM (inactive); with CCRF-CEM, 2.43 µM (inactive); in the assay with RXF 393, 2.59 µM (inactive); in the assay with MDA-MB-435 it was 3.21 µM (inactive); with HL-60, 3.48 µM (inactive). Also, the GI50 in the assay on MOLT-4 was 5.18 µM (inactive); with SNB-75, 7.28 µM (inactive); in the assay on BT-549, 5.25 µM (inactive); in the assay on PC-3, 6.61 µM (inactive); with OVCAR-8, 4.48 µM (inactive); in the assay with NCI/ADR-RES, 7.29 µM (inactive).
